Assay results published in patent US7271161B2, “Platinum complexes as antitumor agents in combination with biochemical modulation” (Board of Regents, the University of Texas System, priority 2002, dated 2007).
Read-outs that look alike come from different tables or passages of the source.

Tests used:
[1] = system: Human A2780 cell line; experiment: MTT cytotoxicity assay, cisplatin-sensitive ovarian A2780 cells, with or without BSO; format: cell-based; design: key to DMF vs. A2780 Control (Without BSO): DMF = IC50 without BSO / IC50 with BSO; details: for DMF vs. A2780 +10 μM BSO (MTC): IC50 without BSO / IC50 with 10 μM BSO (MTC); for DMF vs. A2780 Control (Without BSO): without BSO (reference)
Source text: (§1) The ovarian A2780 and 2008 cell lines are sensitive to cisplatin, while the corresponding 2780CP and 2008/C13* cell lines were selected for resistance following in vitro exposure to cisplatin. The SKOV-3 cell line was established from a patient who was resistant to cisplatin therapy and is considered a model of cisplatin resistance. The A2780 and 2780CP cells have wild-type p53 function, while SKOV-3 is devoid of p53 function. The p53 status for the 2008 and 2008/C131 cells is presently not known.
(§2) Procedure for Cytotoxic Evaluation. All cell lines are maintained in RPMI 1640 medium supplemented with 10% fetal bovine serum, 50 μg/ml penicillin, 50 μg/ml streptomycin, 100 μg/ml neomycin and 0.3 mg/ml L-glutamine. The ovarian lines also require 2 μg/ml insulin for maximal growth. Cells are grown as monolayers at 37° C. in a humidified atmosphere of 5% CO2:95% air. Cytotoxicity is determined by a standard MTT assay. Briefly, the exponentially-growing cells are trypsinized to dislodge them before use. After diluting the tumor cells to appropriate concentrations (2,000-30,000 cells/ml), 100 μl aliquots of the cell suspensions are added to each well of a 96-well microtiter plate. The cells are allowed to attach overnight, and then exposed for 24 hr to BSO at a concentration that is equal to or less than maximally tolerated concentration (MTC). At 22 hr after addition of BSO, the platinum complex is added, and 2 hr later the cells are washed and reincubated. After another 5 days, when control cells are in an exponential phase of growth, 50 μl of an MTT solution (3 mg/ml) is added to each well. Following a 3-hr incubation, the medium is removed and replaced by 50 μl of 100% DMSO to dissolve MTT formazan crystals. Plates are agitated on a plate shaker for 5 min, and absorbances are measured at 570 nm in a multiwell scanning spectrophotometer.
(§3) IC50 values, defined as the drug concentration (μM) inhibiting cell growth by 50% compared to control wells, are determined by fitting a sigmoidal curve to the data using a computer program. Resistance factor is calculated as a ratio of the IC50 against resistant cell line to the IC50 against parent cell line. The dose modification factor (DMF) is derived from a ratio of IC50 without BSO to that with BSO.

[2] = system: Human 2780CP cell line; experiment: MTT cytotoxicity assay, cisplatin-resistant ovarian 2780CP cells, with or without BSO; format: cell-based; design: key to DMF vs. 2780CP Control (Without BSO) / DMF Control / DMF +BSO (MTC): DMF = IC50 without BSO / IC50 with BSO; details: for DMF vs. 2780CP +10 μM BSO: IC50 without BSO / IC50 with 10 μM BSO; for DMF vs. 2780CP +3 mM BSO (MTC): IC50 without BSO / IC50 with 3 mM BSO (MTC); for DMF vs. 2780CP Control (Without BSO): without BSO (reference)
Source text: as §1, §2, §3

[3] = +10 μM BSO (MTC), 24 hr BSO, read-out: IC50 (μM) vs. A2780 +10 μM BSO (MTC)
[4] = without BSO, 2 hr platinum exposure, MTT after 5 days, read-out: IC50 (μM) vs. A2780 Control (Without BSO)
[5] = +10 μM BSO, read-out: IC50 (μM) vs. 2780CP +10 μM BSO
[6] = +3 mM BSO (MTC), read-out: IC50 (μM) vs. 2780CP +3 mM BSO (MTC)
[7] = without BSO, read-out: IC50 (μM) vs. 2780CP Control (Without BSO)
[8] = IC50 2780CP with 10 μM BSO / IC50 A2780 without BSO
[9] = IC50 2780CP with 3 mM BSO (MTC) / IC50 A2780 without BSO
[10] = IC50 2780CP without BSO / IC50 A2780 without BSO

| Structure (SMILES) | IC50 [1, 3] [µM] | DMF vs. A2780 +10 μM BSO (MTC) [1] | DMF vs. A2780 Control (Without BSO) [1] | IC50 [1, 4] [µM] | IC50 [2, 5] [µM] | IC50 [2, 6] [µM] | DMF vs. 2780CP +10 μM BSO [2] | DMF vs. 2780CP +3 mM BSO (MTC) [2] | DMF vs. 2780CP Control (Without BSO) [2] | IC50 [2, 7] [µM] | Resistance Factor vs. 2780CP +10 μM BSO [2, 8] | Resistance Factor vs. 2780CP +3 mM BSO (MTC) [2, 9] | Resistance Factor vs. 2780CP Control (Without BSO) [2, 10] | Resistance Factor vs. 2780CP +10 μM BSO [2] | Resistance Factor vs. 2780CP +3 mM BSO (MTC) [2] | Resistance Factor vs. 2780CP Control (Without BSO) [2] |
| --- | --- | --- | --- | --- | --- | --- | --- | --- | --- | --- | --- | --- | --- | --- | --- | --- |
| [Cl][Pt]1([Cl])([Cl])([Cl])[NH][C@@H]2CCCC[C@H]2[NH]1 (racemic) [Complex 13] | 4.57 | 1.86 | 1.00 | 8.48 | 34.9 | 23.5 | 1.28 | 1.91 | 1.00 | 44.8 | – | – | – | – | – | – |
| [NH2][Pt]([NH2])([Cl])[Cl] [Complex 1] | 4.25 | 1.59 | 1.00 | 6.75 | 82 | 58.3 | 1.23 | 1.73 | 1.00 | 101 | – | – | – | – | – | – |
| [Cl][Pt]1([Cl])[NH][C@@H]2CCCC[C@H]2[NH]1 [Complex 2] | 0.41 | 1.37 | 1.00 | 0.56 | 3.69 | 2.46 | 1.25 | 1.87 | 1.00 | 4.61 | 6.59 | 4.39 | 8.23 | – | – | – |
| [NH2][Pt]([Cl])([Cl])[NH]C1CC1 [Complex 3] | 3.46 | 1.05 | 1.00 | 3.64 | 62.2 | 48.8 | 1.02 | 1.31 | 1.00 | 63.7 | 17.1 | 13.4 | 17.5 | – | – | – |
| [NH2][Pt]([Cl])([Cl])[NH]C1CCC1 [Complex 4] | 0.77 | 1.34 | 1.00 | 1.03 | 16 | 15.8 | 1.04 | 1.05 | 1.00 | 16.6 | 15.5 | 15.3 | 16.1 | – | – | – |
| [NH2][Pt]([Cl])([Cl])[NH]C1CCCC1 [Complex 5, Ammine/cyclopentylamine-dichloro-platinum(II)] | 0.66 | 1.11 | 1.00 | 0.73 | 14.5 | 9.07 | 1.05 | 1.68 | 1.00 | 15.2 | 19.9 | 12.4 | 20.8 | – | – | – |
| [NH2][Pt]([Cl])([Cl])[NH]C1CCCCC1 [Complex 6] | 0.5 | 1.26 | 1.00 | 0.63 | 6.98 | 4.19 | 1.08 | 1.80 | 1.00 | 7.55 | 11.1 | 6.65 | 12.0 | – | – | – |
| [NH2][Pt]([Cl])([Cl])[NH]C1CCCCCCC1 [Complex 8] | 0.61 | 1.26 | 1.00 | 0.77 | 5.97 | 2.35 | 1.24 | 3.15 | 1.00 | 7.41 | 7.75 | 3.05 | 9.62 | – | – | – |
| [NH2][Pt]([Cl])([Cl])[N]1CCC1 [Complex 9] | 3.02 | 1.41 | 1.00 | 4.27 | 18.7 | 8.2 | 1.45 | 3.32 | 1.00 | 27.2 | 4.38 | 1.92 | 6.37 | – | – | – |
| [NH2][Pt]([Cl])([Cl])[N]1CCCC1 [Complex 10] | 2.9 | 1.41 | 1.00 | 4.08 | 28.2 | 17.2 | 1.32 | 2.16 | 1.00 | 37.2 | 6.91 | 4.22 | 9.12 | – | – | – |
| N[C@@H]1CCCC[C@H]1N.[Cl][Pt+2]([Cl])([Cl])[Cl] [Complex 13, Tetraplatin, reference compound] | – | – | – | – | – | – | – | – | – | – | – | – | – | 4.12 | 2.77 | 5.28 |
